# Read-outs that look alike come from different tables or passages of the source. Non-standard residues stand in square brackets, D forms with d. Residues, ends and D or L forms follow the SMILES beside them. 2Nal = N[C@@H](Cc1ccc2ccccc2c1)C(=O)O
# Key:
# [1] = tested on: Methicillin-resistant Staphylococcus aureus MRSA (ATCC BAA-1556); conditions: ATCC BAA-1556
# [2] = tested on: Methicillin-resistant Staphylococcus aureus MRSA (ATCC BAA-1556); conditions: ATCC BAA-1556; remark: listed apart in the source
# human red blood cells = tested on: human red blood cells; design: unit not given beside the values
# [3] = tested on: Klebsiella pneumoniae (KPC, ATCC BAA-1705); conditions: ATCC BAA-1705
# [4] = tested on: Escherichia coli (E. Coli, ATCC 25922); conditions: ATCC 25922
# [5] = tested on: Pseudomonas aeruginosa (PSA, ATCC 27883); conditions: ATCC 27883
# MRSA (ATCC BAA-1556) = conditions: MRSA (ATCC BAA-1556)
# [6] = tested on: Pseudomonas aeruginosa (PSA, ATCC 27883); test: Synergy checkerboard assay (FIC index); type: cell-based; conditions: Pseudomonas aeruginosa (ATCC 27883)
# [7] = tested on: Escherichia coli (E. Coli, ATCC 25922); conditions: Escherichia coli (ATCC 25922)
# [8] = tested on: Klebsiella pneumoniae (KPC, ATCC BAA-1705); conditions: Klebsiella pneumoniae (ATCC BAA-1705)
# [9] = type: in vivo; conditions: for Average Body Weight / Average Body Weight Growth Rate: Female (M40~M42)
# Method: In-vivo toxicity study of IFX301. 1. Dose formulations were prepared freshly on dosing day. Doses started from the low to high levels and staggered with 4 h up to 24 h between doses with animals. A dose was escalated or decreased if the test compound appears to be generally tolerated well or not. The cage side observation was done twice daily. The clinical observation was conducted prior to randomization and dosing daily thereafter (at least hourly for the first 4 hours after dosing) and prior to termination for mortality, morbidity check, and clinical signs. Bodyweight was monitored prior to randomization and dosing, daily thereafter, and prior to termination. Gross necropsy was done for all scheduled animals on day 8. Full gross necropsy was conducted, this includes a macroscopic examination of the external surface of the body, all orifices, cranial cavity, the external surface of the brain and cut surfaces of the spinal cord, and the cranial, thoracic, abdominal and pelvic cavities and their viscera, cervical areas, carcass, and genitalia; The animal identification and selected tissues (sex appropriate) identified in Table 38 were sampled and preserved in 10% neutral buffered formalin (NBF). For unscheduled animals (found dead and moribund sacrificed animals): gross necropsy was conducted, and tissues were preserved for possible histology to determine the cause of death. Histopathology was done for adrenal glands, brain, cecum, colon, duodenum, heart, ileum, jejunum, kidneys, liver, rectum, spleen, stomach, thymus lung, pancreas and the testis (ovaries); total 16 tissues/mouse.
# [10] = Table 25, peptide in combination with antibiotics
# [11] = Average, ICR mice, IP, 25 mg/kg, Male (M49~M51)
# [12] = Average, ICR mice, IP, 50 mg/kg, Male (M43~M45)
# [13] = Female ICR mice, MTD study, IP route, 10 mg/kg & 5 mL/kg, M40~M42
# [14] = Female ICR mice, MTD study, IP route, 25 mg/kg & 5 mL/kg, M52~M54
# [15] = Female ICR mice, MTD study, IP route, 50 mg/kg & 5 mL/kg, M46~M48
# [16] = peptide part of FIC antibiotic/peptides, in combination with antibiotic
smiles,measurement,setting,value
"N=C(N)NCCC[C@@H]1NC(=O)[C@H](CCCNC(=N)N)NC(=O)[C@H](CCCNC(=N)N)NC(=O)[C@H](Cc2c[nH]c3ccccc23)NC(=O)[C@H](Cc2ccc3ccccc3c2)NC(=O)[C@H](Cc2ccc3ccccc3c2)NC(=O)[C@H](CCCNC(=N)N)NC1=O [IFX-031, c[Arg-Arg-Arg-Arg-NaI-NaI-Trp]] (cyclo(RRRR[2Nal][2Nal]W))",MIC MRSA ATCC BAA-1556,[1],1.5 µg/mL
same,MRSA (ATCC BAA-1556) MIC,[2],2 µg/mL
same,HC50,human red blood cells,350
same,Klebsiella pneumoniae (ATCC BAA-1705) MIC,[3],32 µg/mL
same,Escherichia coli (ATCC 25922) MIC,[4],16 µg/mL
same,Pseudomonas aeruginosa (ATCC 27883) MIC,[5],16 µg/mL
"N=C(N)NCCC[C@@H]1NC(=O)[C@H](CCCNC(=N)N)NC(=O)[C@H](CCCNC(=N)N)NC(=O)[C@H](Cc2c[nH]c3ccccc23)NC(=O)[C@H](Cc2c[nH]c3ccccc23)NC(=O)[C@H](Cc2c[nH]c3ccccc23)NC(=O)[C@H](Cc2c[nH]c3ccccc23)NC(=O)[C@H](CCCNC(=N)N)NC(=O)[C@H](CCCNC(=N)N)NC1=O [IFX-301, [R5W4]]",MIC (peptide),"MRSA (ATCC BAA-1556); Table 25, peptide alone",MIC = 4 ug/ml
same,FIC (peptide),MRSA (ATCC BAA-1556); [10],FIC = 1 ug/ml
same,MIC (peptide),"[6]; Table 25, peptide alone",MIC = 32 ug/ml
same,FIC (peptide),[6]; [10],FIC = 8 ug/ml
same,MIC (peptide),"[7]; Table 25, peptide alone",MIC = 16 ug/ml
same,FIC (peptide),[7]; [10],FIC = 4 ug/ml
same,MRSA (ATCC BAA-1556) MIC,[2],4 µg/mL
same,MIC (peptide),"[8]; Table 25, peptide alone",MIC = 32 ug/ml
same,FIC (peptide),[8]; [10],FIC = 8 ug/ml
same,Adrenal glands/Body Coefficient,[9]; [11],0.03%
same,Heart/Body Coefficient,[9]; [11],0.57%
same,Kidneys/Body Coefficient,[9]; [11],2.15%
same,Liver/Body Coefficient,[9]; [11],8.64%
same,Lung/Body Coefficient,[9]; [11],1.00%
same,Spleen/Body Coefficient,[9]; [11],0.46%
same,Testes/Body Coefficient,[9]; [11],0.62%
same,Thymus/Body Coefficient,[9]; [11],0.31%
same,Heart/Body Coefficient,[9]; [12],0.49%
same,Kidneys/Body Coefficient,[9]; [12],2.06%
same,Liver/Body Coefficient,[9]; [12],8.27%
same,Lung/Body Coefficient,[9]; [12],0.72%
same,Spleen/Body Coefficient,[9]; [12],0.68%
same,Testes/Body Coefficient,[9]; [12],0.69%
same,Thymus/Body Coefficient,[9]; [12],0.25%
same,Adrenal glands/Body Coefficient,[9]; [13],0.04%
same,Average Body Weight before Necropsy,[9]; [13],25 g
same,Brain/Body Coefficient,[9]; [13],1.77%
same,Heart/Body Coefficient,[9]; [13],0.51%
same,Kidneys/Body Coefficient,[9]; [13],1.46%
same,Liver/Body Coefficient,[9]; [13],6.51%
same,Lung/Body Coefficient,[9]; [13],0.89%
same,Ovaries/Body Coefficient,[9]; [13],0.08%
same,Spleen/Body Coefficient,[9]; [13],0.60%
same,Thymus/Body Coefficient,[9]; [13],0.48%
same,Adrenal glands/Body Coefficient,[9]; [14],0.05%
same,Average Body Weight before Necropsy,[9]; [14],23 g
same,Heart/Body Coefficient,[9]; [14],0.53%
same,Kidneys/Body Coefficient,[9]; [14],1.73%
same,Liver/Body Coefficient,[9]; [14],7.85%
same,Lung/Body Coefficient,[9]; [14],1.13%
same,Ovaries/Body Coefficient,[9]; [14],0.09%
same,Spleen/Body Coefficient,[9]; [14],0.64%
same,Thymus/Body Coefficient,[9]; [14],0.49%
same,Adrenal glands/Body Coefficient,[9]; [15],0.03%
same,Average Body Weight before Necropsy,[9]; [15],21 g
same,Heart/Body Coefficient,[9]; [15],0.49%
same,Kidneys/Body Coefficient,[9]; [15],1.84%
same,Liver/Body Coefficient,[9]; [15],7.82%
same,Lung/Body Coefficient,[9]; [15],0.75%
same,Ovaries/Body Coefficient,[9]; [15],0.08%
same,Spleen/Body Coefficient,[9]; [15],0.81%
same,Thymus/Body Coefficient,[9]; [15],0.35%
same,Average Body Weight,"[9]; ICR mice, IP, 10 mg/kg, Day 1",21 g
same,Average Body Weight,"[9]; ICR mice, IP, 10 mg/kg, Day 2",21 g
same,Average Body Weight Growth Rate,"[9]; ICR mice, IP, 10 mg/kg, Day 2",3.23%
same,Average Body Weight,"[9]; ICR mice, IP, 10 mg/kg, Day 3",22 g
same,Average Body Weight Growth Rate,"[9]; ICR mice, IP, 10 mg/kg, Day 3",4.84%
same,Average Body Weight,"[9]; ICR mice, IP, 10 mg/kg, Day 4",23 g
same,Average Body Weight Growth Rate,"[9]; ICR mice, IP, 10 mg/kg, Day 4",11.29%
same,Average Body Weight,"[9]; ICR mice, IP, 10 mg/kg, Day 5",24 g
same,Average Body Weight Growth Rate,"[9]; ICR mice, IP, 10 mg/kg, Day 5",16.13%
same,Average Body Weight,"[9]; ICR mice, IP, 10 mg/kg, Day 6",24 g
same,Average Body Weight Growth Rate,"[9]; ICR mice, IP, 10 mg/kg, Day 6",16.13%
same,Average Body Weight,"[9]; ICR mice, IP, 10 mg/kg, Day 7",24 g
same,Average Body Weight Growth Rate,"[9]; ICR mice, IP, 10 mg/kg, Day 7",17.74%
same,Average Body Weight,"[9]; ICR mice, IP, 10 mg/kg, Day 8",25 g
same,Average Body Weight Growth Rate,"[9]; ICR mice, IP, 10 mg/kg, Day 8",20.97%
same,clinical observation,"[9]; mouse, in vivo",did not show any abnormalities
same,Average Body Weight before Necropsy,"[9]; mouse, in vivo, ip, 10 mg/kg",27 g
same,Average Body Weight before Necropsy,"[9]; mouse, in vivo, ip, 25 mg/kg",26 g
same,Average Body Weight before Necropsy,"[9]; mouse, in vivo, ip, 50 mg/kg",26 g
same,Pseudomonas aeruginosa (ATCC 27883) MIC,[5],32 µg/mL
"N=C(N)NCCC[C@@H]1NC(=O)[C@H](CCCNC(=N)N)NC(=O)[C@H](CCCNC(=N)N)NC(=O)[C@H](CCCNC(=N)N)NC(=O)[C@H](Cc2c[nH]c3ccccc23)NC(=O)[C@H](Cc2c[nH]c3ccccc23)NC(=O)[C@H](Cc2c[nH]c3ccccc23)NC(=O)[C@H](Cc2c[nH]c3ccccc23)NC(=O)[C@H](CCCNC(=N)N)NC(=O)[C@H](CCCNC(=N)N)NC1=O [IFX-318, [R6W4]] (cyclo(RRRRRRWWWW))",FIC peptides,MRSA (ATCC BAA-1556); [16],FIC = 2 μg/ml
same,FIC peptides,[6]; [16],FIC = 4 ug/ml
same,FIC peptides,[7]; [16],FIC = 8 μg/ml
same,FIC peptides,[8]; [16],FIC = 16 μg/ml
same,Klebsiella pneumoniae (ATCC BAA-1705) MIC,[3],64 µg/mL
same,Escherichia coli (ATCC 25922) MIC,[4],32 µg/mL
N=C(N)NCCC[C@@H]1NC(=O)[C@H](CCCNC(=N)N)NC(=O)[C@H](CCCNC(=N)N)NC(=O)[C@H](CCCCN)NC(=O)[C@H](Cc2c[nH]c3ccccc23)NC(=O)[C@H](Cc2c[nH]c3ccccc23)NC(=O)[C@H](Cc2c[nH]c3ccccc23)NC(=O)[C@H](Cc2c[nH]c3ccccc23)NC(=O)[C@H](CCCNC(=N)N)NC(=O)[C@H](CCCNC(=N)N)NC1=O [[R4W5K] (IFX-315)] (cyclo(RRRRRWWWWK)),MRSA (ATCC BAA-1556) MIC,[2],4 µg/mL
same,Klebsiella pneumoniae (ATCC BAA-1705) MIC,[3],32 µg/mL
same,Escherichia coli (ATCC 25922) MIC,[4],16 µg/mL
same,Pseudomonas aeruginosa (ATCC 27883) MIC,[5],16 µg/mL
